Laboratory results from patent publication US6525001B1, “Substituted pyrimidine and pyridine herbicides” (Mid-American Commercialization Corporation, priority 1997, dated 2003).

Row | melting point [°C] | SMILES
1 | 82 to 91 | Cc1cnc(-n2ccc(C(F)(F)F)n2)nc1C(=O)c1cccc(C(F)(F)F)c1 [Example 4, [5-methyl-2-[3-(trifluoromethyl)-1H-pyrazol-1-yl]-4-pyrimidinyl][3-(trifluoromethyl)phenyl]methanone]
2 | 98 to 100 | Cc1cnc(-c2ccc(C(F)(F)F)cc2)nc1C(=O)c1cccc(C(F)(F)F)c1 [Example 5, [5-methyl-2-[4-(trifluoromethyl)phenyl]-4-pyrimidinyl][3-(trifluoromethyl)phenyl]methanone]
